Measured values published in the supplement of paper PMC8149375.

What was measured:
Conditions in all cases: treatment: drug + dasatinib (fixed dose, not stated); 5 days
[1] = test system: 786-O; assay: AUC of dose-response viability curve, drug + dasatinib, normalised to DMSO (arbitrary (AUC of normalised viability)); higher = less growth inhibition
Protocol: (§1)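 Primary HTS combination arm: 8 RCC cell lines treated with 8 doses (up to 10 uM) of each library drug plus a fixed dose of dasatinib (dose not stated) for 5 days; viability read by CellTiter-Glo and normalised to DMSO. GI50 was fitted with XLfit, AUC is the area under the dose-response curve, and minimum viability is the lowest fraction of DMSO viability across doses.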

[2] = test system: A498; assay: as above
Protocol: as §1

[3] = test system: UO-31; assay: as above
Protocol: as §1

[4] = test system: CAKI-1; assay: as above
Protocol: as §1

[5] = test system: SN12C; assay: as above
Protocol: as §1

[6] = test system: ACHN; assay: as above
Protocol: as §1

[7] = test system: 769-P; assay: as above
Protocol: as §1

[8] = test system: TK-10; assay: as above
Protocol: as §1

[9] = test system: 786-O; assay: GI50 of drug in presence of dasatinib; higher = less potent
Protocol: as §1

[10] = test system: A498; assay: as above
Protocol: as §1

[11] = test system: UO-31; assay: as above
Protocol: as §1

[12] = test system: CAKI-1; assay: as above
Protocol: as §1

[13] = test system: SN12C; assay: as above
Protocol: as §1

[14] = test system: ACHN; assay: as above
Protocol: as §1

[15] = test system: 769-P; assay: as above
Protocol: as §1

[16] = test system: TK-10; assay: as above
Protocol: as §1

[17] = test system: 786-O; assay: minimum viability across doses, drug + dasatinib, relative to DMSO (fraction); higher = less growth inhibition
Protocol: as §1

[18] = test system: A498; assay: as above
Protocol: as §1

[19] = test system: UO-31; assay: as above
Protocol: as §1

[20] = test system: CAKI-1; assay: as above
Protocol: as §1

[21] = test system: SN12C; assay: as above
Protocol: as §1

[22] = test system: ACHN; assay: as above
Protocol: as §1

[23] = test system: 769-P; assay: as above
Protocol: as §1

[24] = test system: TK-10; assay: as above
Protocol: as §1

SMILES | AUC of dose-response viability curve [1] | AUC of dose-response viability curve [2] | AUC of dose-response viability curve [3] | AUC of dose-response viability curve [4] | AUC of dose-response viability curve [5] | AUC of dose-response viability curve [6] | AUC of dose-response viability curve [7] | AUC of dose-response viability curve [8] | GI50 of drug [9] | GI50 of drug [10] | GI50 of drug [11] | GI50 of drug [12] | GI50 of drug [13] | GI50 of drug [14] | GI50 of drug [15] | GI50 of drug [16] | minimum viability across doses [17] | minimum viability across doses [18] | minimum viability across doses [19] | minimum viability across doses [20] | minimum viability across doses [21] | minimum viability across doses [22] | minimum viability across doses [23] | minimum viability across doses [24]
O=C1C(=O)N(Cc2ccc(Cl)c(Cl)c2)c2ccccc21 [Apoptosis Activator 2] + Cc1nc(Nc2ncc(C(=O)Nc3c(C)cccc3Cl)s2)cc(N2CCN(CCO)CC2)n1 [dasatinib] | 1.72 | 3.56 | 4.31 | 2.19 | 2.47 | 1.92 | 2.46 | 2.34 | > 10000 nM | 8370 nM | 9070 nM | 2230 nM | 4600 nM | 1990 nM | 8610 nM | 7390 nM | 0.0758 | 0.411 | 0.211 | 0.187 | 0.265 | 0.295 | 0.486 | 0.454
CCN1CCN(C(=O)Cc2ccc(Nc3ncc(F)c(Nc4ccc(C(=O)Nc5ccccc5Cl)cc4)n3)cc2)CC1 [Aurora A Inhibitor I] + Cc1nc(Nc2ncc(C(=O)Nc3c(C)cccc3Cl)s2)cc(N2CCN(CCO)CC2)n1 [dasatinib] | 1.57 | 3.16 | 2.58 | 1.63 | 2.09 | 1.53 | 1.98 | 2.18 | 164 nM | 8980 nM | 552 nM | 281 nM | 1190 nM | 130 nM | 652 nM | 1010 nM | 0.0991 | 0.53 | 0.0547 | 0.00201 | 0.00416 | 0.0307 | 0.0246 | 0.275
CNC(=O)c1ccccc1Sc1ccc2c(/C=C/c3ccccn3)n[nH]c2c1 [Axitinib] + Cc1nc(Nc2ncc(C(=O)Nc3c(C)cccc3Cl)s2)cc(N2CCN(CCO)CC2)n1 [dasatinib] | 2.8 | 3.26 | 3.37 | 1.8 | 2.08 | 2.14 | 2.02 | 2.91 | > 10000 nM | 7690 nM | 7850 nM | 439 nM | 622 nM | 2980 nM | 1400 nM | > 10000 nM | 0.635 | 0.457 | 0.392 | 0.162 | 0.262 | 0.271 | 0.159 | 0.715
Cn1c(=O)n(-c2ccc(C(C)(C)C#N)cc2)c2c3cc(-c4cnc5ccccc5c4)ccc3ncc21 [BEZ235 (NVP-BEZ235)] + Cc1nc(Nc2ncc(C(=O)Nc3c(C)cccc3Cl)s2)cc(N2CCN(CCO)CC2)n1 [dasatinib] | 1.44 | 1.65 | 1.66 | 1.35 | 1.63 | 1.23 | 1.35 | 1.84 | 81.3 nM | 152 nM | 129 nM | 73.7 nM | 164 nM | 34.7 nM | 59.6 nM | 306 nM | 0.0643 | 0.0638 | 0.00603 | 0.0361 | 0.146 | 0.0631 | 0.0926 | 0.122
CCN1CCN(c2ccc(Nc3cc(N(C)C(=O)Nc4c(Cl)c(OC)cc(OC)c4Cl)ncn3)cc2)CC1 [BGJ398 (NVP-BGJ398)] + Cc1nc(Nc2ncc(C(=O)Nc3c(C)cccc3Cl)s2)cc(N2CCN(CCO)CC2)n1 [dasatinib] | 1.97 | 2.87 | 2.64 | 1.15 | 1.66 | 1.29 | 2.3 | 2.18 | 990 nM | 9590 nM | 1260 nM | 26.6 nM | 131 nM | 26.6 nM | 2890 nM | 1350 nM | 0.249 | 0.435 | 0.00819 | 0.0483 | 0.0804 | 0.0494 | 0.234 | 0.221
CC[C@@H]1C(=O)N(C)c2cnc(Nc3ccc(C(=O)N[C@H]4CC[C@H](N5CCN(CC6CC6)CC5)CC4)cc3OC)nc2N1C(C)C [BI6727 (Volasertib)] + Cc1nc(Nc2ncc(C(=O)Nc3c(C)cccc3Cl)s2)cc(N2CCN(CCO)CC2)n1 [dasatinib] | 0.664 | 1.83 | 2.02 | 1.25 | 1.37 | 1.13 | 1.16 | 1.61 | 10.5 nM | 138 nM | 151 nM | 55.2 nM | 58.6 nM | 27.8 nM | 43.2 nM | 160 nM | 0.0043 | 0.0361 | 0.0151 | 0.00782 | 0.0772 | 0.00653 | 0.0202 | 0.00827
CC[C@@H]1C(=O)N(C)c2cnc(Nc3ccc(C(=O)NC4CCN(C)CC4)cc3OC)nc2N1C1CCCC1 [BI 2536] + Cc1nc(Nc2ncc(C(=O)Nc3c(C)cccc3Cl)s2)cc(N2CCN(CCO)CC2)n1 [dasatinib] | 0.643 | 1.51 | 1.3 | 0.981 | 1.24 | 0.778 | 1.28 | 1.68 | 8.79 nM | 38.4 nM | 61.4 nM | 7.85 nM | 32.1 nM | 4.47 nM | 56.8 nM | 405 nM | 0.0183 | 0.0692 | 0.0114 | 0.0866 | 0.052 | 0.0392 | 0.0343 | 0.0551
COC(=O)c1ccc2c(c1)NC(=O)/C2=C(\Nc1ccc(N(C)C(=O)CN2CCN(C)CC2)cc1)c1ccccc1 [BIBF1120 (Vargatef)] + Cc1nc(Nc2ncc(C(=O)Nc3c(C)cccc3Cl)s2)cc(N2CCN(CCO)CC2)n1 [dasatinib] | 2.98 | 3.35 | 2.64 | 1.77 | 2.3 | 1.73 | 2.47 | 2.88 | > 10000 nM | > 10000 nM | 1730 nM | 430 nM | 2620 nM | 147 nM | > 10000 nM | > 10000 nM | 0.694 | 0.664 | 0.128 | 0.125 | 0.412 | 0.23 | 0.656 | 0.637
Nc1cc(C(F)(F)F)c(-c2cc(N3CCOCC3)nc(N3CCOCC3)n2)cn1 [BKM120 (NVP-BKM120)] + Cc1nc(Nc2ncc(C(=O)Nc3c(C)cccc3Cl)s2)cc(N2CCN(CCO)CC2)n1 [dasatinib] | 1.29 | 2.49 | 2.27 | 1.51 | 1.84 | 1.48 | 1.83 | 1.84 | 81.7 nM | 1250 nM | 663 nM | 244 nM | 914 nM | 205 nM | 478 nM | 505 nM | 0.00305 | 0.101 | 0.00967 | 0.0204 | 0.0529 | 0.0632 | 0.0577 | 0.0741
CC(C)c1cnn2c(NCc3ccccc3)cc(NCCCCCCN)nc12.Cl [BS-181 HCl] + Cc1nc(Nc2ncc(C(=O)Nc3c(C)cccc3Cl)s2)cc(N2CCN(CCO)CC2)n1 [dasatinib] | 2.72 | 3.45 | 4.39 | 2.34 | 2.46 | 1.94 | 2.55 | 2.63 | 7190 nM | > 10000 nM | > 10000 nM | > 10000 nM | > 10000 nM | 2870 nM | > 10000 nM | > 10000 nM | 0.438 | 0.942 | 1.11 | 0.6 | 0.67 | 0.344 | 0.672 | 0.657
O=C(NCCCNc1nc(Nc2cccc(NC(=O)N3CCCC3)c2)ncc1I)c1cccs1 [BX-795] + Cc1nc(Nc2ncc(C(=O)Nc3c(C)cccc3Cl)s2)cc(N2CCN(CCO)CC2)n1 [dasatinib] | 1.72 | 3.06 | 3.15 | 1.77 | 2.44 | 1.74 | 2.08 | 2.09 | 695 nM | > 10000 nM | 3020 nM | 457 nM | 4410 nM | 411 nM | 1590 nM | 1780 nM | 0.00318 | 0.74 | 0.015 | 0.0814 | 0.334 | 0.155 | 0.0706 | 0.0986
O=C(Nc1cccc(Nc2ncc(Br)c(NCCc3cnc[nH]3)n2)c1)N1CCCC1 [BX-912] + Cc1nc(Nc2ncc(C(=O)Nc3c(C)cccc3Cl)s2)cc(N2CCN(CCO)CC2)n1 [dasatinib] | 1.78 | 2.97 | 3.19 | 1.8 | 2.23 | 1.9 | 2.3 | 2.25 | 937 nM | 5820 nM | 9130 nM | 502 nM | 1180 nM | 1280 nM | 4600 nM | 2590 nM | 0.0673 | 0.365 | 0.288 | 0.0425 | 0.0907 | 0.168 | 0.335 | 0.144
Cc1nc(NC(=O)N2CCC[C@H]2C(N)=O)sc1-c1ccnc(C(C)(C)C(F)(F)F)c1 [BYL719] + Cc1nc(Nc2ncc(C(=O)Nc3c(C)cccc3Cl)s2)cc(N2CCN(CCO)CC2)n1 [dasatinib] | 1.56 | 3.24 | 3.72 | 2.14 | 2.23 | 1.45 | 2.29 | 2.15 | 69.8 nM | > 10000 nM | 5560 nM | 1720 nM | > 10000 nM | 11.6 nM | 3680 nM | 2790 nM | 0.114 | 0.54 | 0.0931 | 0.162 | 0.407 | 0.242 | 0.393 | 0.305
